Data reported in patent publication US7396851B2, “Heterocyclic and benzoheterocyclic polyamides structurally related to the natural antibiotic distamycin A for the treatment of β-thalassaemia” (priority 2001, dated 2008).
Structures can show the parent of a compound that is named as a salt.

Tests used:
[1] = tested on: human cell line K562; assay: Erythroid differentiation of K562 cells (benzidine-positive cells); type: cell-based; conditions: mean±SD of five independent experiments
Description: The activity of the distamycin analogues described previously as inducers of erythroid cell differentiation was evaluated by studying the erythroid differentiation induced in human cell cultures.
The biological activity was evaluated by examining the capacity of those compounds to induce erythroid differentiation in the human cell line K562, which is capable of undergoing erythroid differentiation by expressing the genes for γ-globin if subjected to treatment with modifiers of the biological response that are suitable for the purpose (19-24). The level of differentiation was evaluated by analysing the positive reaction of the cells to benzidine (23). Some of the data obtained are given in Table 1, which represents the results of five independent experiments (mean±SD).

[2] = tested on: mRNA for γ-globin; assay: Expression of genes coding for γ-globins by RT-PCR / Northern blotting in K562 cells; type: cell-based, human; conditions: concentration 50 nM, quantitative RT-PCR, untreated control = 1
Description: The expression of genes coding for γ-globins was evaluated by RT-PCR (reverse transcriptase PCR) and Northern blotting (25). […] The evaluations were carried out after 6 days' induction with the indicated molecules.
The Technique used is that of quantitative RT-PCR (28, 29) using the following oligonucleotide primers and probe: γ-globin forward primer, 5′-TGGCAAGAAGGTGCTGACTTC-3′; γ-globin reverse primer, 5′-TCA CTC AGC TGG GCA AAG G-3′; probe γ-globin, 5′-FAM-TGGGAGATGCCATAAAGCACCTGG-TAMRA-3′(FAM=6-carboxy fluorescein, TAMRA=6-carboxy-N,N,N′,N′-tetramethylrhodamine).

Compound | erythroid differentiation (%) = percentage of K562 cells that react positively to benzidine ([1]; concentration 50 nM) | further results
Cl.Cn1cc(NC(=O)c2cc(NC(=O)c3nc(NC(=O)c4ccc(N(CCCl)CCCl)cc4)cn3C)cn2C)cc1C(=O)NCCC(=N)N [Compound 2, 3-(1-methyl-4-(1-methyl-4-(1-methyl-4-(4-(N,N-bis(2-chloroethyl)amino)benzenecarboxamido)imidazole-2-carboxamido)pyrrole-2-carboxamido)pyrrole-2-carboxamido)propionamidine hydrochloride] | 85.2 ± 12.8% | 
Cn1cc(NC(=O)c2cc(NC(=O)c3cc(NC(=O)c4cc5cc(N(CCCl)CCCl)ccc5o4)cn3C)cn2C)cc1C(=O)NCCC(=N)N [Compound 3, 3-(1-methyl-4-(1-methyl-4-(1-methyl-4-(5-N,N-bis(2-chloroethyl)aminobenzofurane-2-carboxamido)pyrrole-2-carboxamido)pyrrole-2-carboxamido)pyrrole-2-carboxamido)propionamidine hydrochloride] |  | erythroid differentiation (%) = percentage of K562 cells that react positively to benzidine ([1]; concentration 100 nM): 72.4 ± 10.2%
Cl.Cn1cc(NC(=O)c2cc(NC(=O)c3cc(NC(=O)c4ccc(N(CCCl)CCCl)cc4)cn3C)cn2C)cc1C(=O)NCCC(=N)N [Compound 1, 3-(1-methyl-4-(1-methyl-4-(1-methyl-4-(4-(N,N-bis(2-chloroethyl)amino)benzenecarboxamido)pyrrole-2-carboxamido)pyrrole-2-carboxamido)pyrrole-2-carboxamido)propionamidine hydrochloride] | 65.5 ± 8.8% | mRNA for γ-globin, increase compared with untreated control K562 cells [2]: 11.5 ± 2.5
Cn1cc(NC(=O)c2cc(NC(=O)c3cc(N(CC4CO4)CC4CO4)cn3C)cn2C)cc1C(=O)NCC/C(N)=N/C#N (stereo not drawn) [Compound 5, 3-(1-methyl-4-(1-methyl-4-(1-methyl-4-(N,N-bis(2-oxiranylmethyl)amino)pyrrole-2-carboxamido)pyrrole-2-carboxamido)pyrrole-2-carboxamido)cyanopropionamidine hydrochloride] | 77 ± 10.1% | 
CN(C)CCCNC(=O)c1cc2cc(NC(=O)c3cc4cc(NC(=O)c5ccc(N(CCCl)CCCl)cc5)ccc4[nH]3)ccc2o1 [Compound 4, N-(3′-dimethylaminopropyl)-5-(5-(4-(bis(2-chloroethyl)amino)benzoylamino)-1H-indol-2-carboxamido)benzofurane-2-carboxamido hydrochloride] |  | erythroid differentiation (%) = percentage of K562 cells that react positively to benzidine ([1]; concentration 500 nM): 30 ± 3.8%
